Source: patent US20180078498A1, “Microneedle Patch for Delivering an Active Ingredient to Skin” (LEO Pharma A/S, priority 2015, published 2018)

Assay: Testing of biodegradable polymers as microneedle matrix (physical stability, release, chemical stability of active ingredient)
Type: physicochemical
Procedure: In the course of research leading to the present invention, a large number of different biodegradable polymers were tested for their suitability to form a matrix from which the microneedles could be made.

chemical stability of calcipotriol (ester-terminated polylactide, polyglycolide or polylactide co-glycolide as the biodegradable polymer): chemically stable | chemical stability of calcipotriol (in a matrix of polylactic acid, polyglycolic acid or polylactic co-glycolic acid): not chemically stable
SMILES: C=C1/C(=C\C=C2/CCC[C@]3(C)[C@@H]([C@H](C)/C=C/[C@@H](O)C4CC4)CC[C@@H]23)C[C@@H](O)C[C@@H]1O [calcipotriol]
